{
  "source": "patent US20240366644A1",
  "about": "“ANTI-INFLAMMATORY APPLICATION OF GINSENOSIDE RD” (priority 2022, published 2024)",
  "tested_on": "COVID-19 Delta virus-infected mice",
  "experiment": "IL-1β and MCP-1 expression (RT-qPCR) in lung homogenates of COVID-19 Delta virus-infected mice",
  "type": "in vivo, hACE2 transgenic C57BL/6 mice",
  "conditions": "20 mg/kg administration group",
  "data": [
    {"smiles": "CC(C)=CCC[C@](C)(O[C@@H]1O[C@H](CO)[C@@H](O)[C@H](O)[C@H]1O)[C@H]1CC[C@]2(C)[C@@H]1[C@H](O)C[C@@H]1[C@@]3(C)CC[C@H](O[C@@H]4O[C@H](CO)[C@@H](O)[C@H](O)[C@H]4O[C@@H]4O[C@H](CO)[C@@H](O)[C@H](O)[C@H]4O)C(C)(C)[C@@H]3CC[C@]12C", "note": "[Ginsenoside Rd, ginsenoside Rd]", "values": [
      {"measurement": "ability to inhibit the overexpression of inflammatory mediators compared with Dexamethasone", "value": "considerable to that of Dexamethasone"}
    ]}
  ]
}
